In US20250319206A1, “CRISPR/CAS GENE EDITING OF NEH4 AND/OR NEH5 DOMAINS IN NRF2” (Christina Care Gene Editing Institute, Inc., priority 2024, published 2025):

Tests used:
KYSE-410 cells = test: Chemosensitivity testing, CellTiter-Glo 2.0 cell viability, KYSE-410 cells; type: cell-based, Human; conditions: for chemosensitivity to Cisplatin restored: cisplatin 72 hr; for sensitivity to cisplatin: exon 4 targeting
Text: The data was plotted with the coefficient of variance.
To evaluate this approach for broad based applications, we executed the same protocol on KYSE-410 cells which originate from the poorly differentiated invasive esophageal squamous cell carcinoma resected from the cervical esophagus of a person prior to treatment^41. First, we confirmed that the DNA sequence of exon 2 and exon 4 was identical and amenable to targeting with CRISPRs sg3, sg76, or sg83 respectively (data not shown). While this may seem like a trivial matter, it is not, particularly with mutator phenotypes in transformed cells. Plated cells were allowed to recover for 24 hours prior to transfection with the same CRISPR complexes as described in FIG. 12. […] These overall levels are generally considered to be a complete genetic disruption of a mammalian gene. The percentage of frameshift mutations created by the action of these guide RNAs mimics those levels seen previously in FADU cells. […] The expression levels of NRF2, NQO1, HMOX1, and GCLC were also assessed, FIG. 13C. […] This analysis further supports that disruption of NRF2 in exon 4 has a higher impact on overcoming chemosensitivity by disrupting its function of activating downstream genes.

FaDu cells = conditions: for viability after a single dose of Cisplatin: exon 4 edited, cisplatin 72 hours; for sensitivity to cisplatin: exon 4 targeting
NRF2 gene = NRF2 gene editing by Sanger sequencing/DECODR in A549 cells; type: cell-based, Human; conditions: 72 hours after transfection
Text: (§1) FIG. 4A-C: Lung adenocarcinoma cells targeting Exon 3, 4, 5 of NRF2 and assessment of chemotherapy response. (FIG. 4A) A549 cells were transfected with each respective gRNA. Genomic DNA from each cell population was isolated and amplified across exon 3, 4 or 5 of the NRF2 gene. Amplicons were sanger sequenced and analyzed for indels at the CRISPR target site. The graph presents the total editing efficiency listed as Indel and frameshifting indel % listed as FS. (FIG. 4B) Raw sequence files from cells targeted with gRNA 76 or gRNA 83 were aligned using the software program, DECODR, to display the indel pattern (listed as INDEL and %). […] Viability was measured via bioreduction of MTS to a formazan product. […] The average relative viability of cells in response to cisplatin is graphed above.
(§2) To assess CRISPR activity across various exons of NRF2, several gRNAs were designed along exon 3, 4 and 5 of the NRF2 gene in the A549 cell line. The A549 cells were transfected with each individually designed gRNA and cells were collected 72 hours after transfection. Genomic DNA was isolated, PCR amplified and Sanger sequenced. Editing activity was quantified using DECODR to deconvolute the indels present in at the cut site of each gRNA. […]

Panc-1 cells = test: Cell viability with gemcitabine, CellTiter-Glo 2.0, Panc-1 cells; type: cell-based, Human; conditions: Panc-1 cells, in the absence of gemcitabine
Experimental: Wildtype and transfected Panc-1 cells were plated to 24 well plates (n=5) at 50,000 cells per well and placed in incubator for 24 hours. The cells were then treated with either Gemcitabine (Selleckchem, Cat. S1714) or DMSO (Thermo Fisher, Cat. D12345). Cells treated with Gemcitabine were treated at one of the following concentrations: 0 μM, 2.5 μM, 5 μM, 25 μM while cells treated with DMSO were treated at: 0%, 0.025%, 0.05%, or 0.25%. Cells remained in Gemcitabine or DMSO for 72 hours before being evaluated using CellTiter-Glo 2.0 Cell Viability Assay (Promega, Cat. G9241).
Since our long-term objective is to develop an effective genetic treatment that would augment standard care, we decided to examine the possibility that we could restore sensitivity to gemcitabine by genetic editing of NRF2 in gemcitabine resistant Panc1 cells. We are using gemcitabine as a selection system to determine if gene editing at some level, can help restore tumor cell killing. We established the kill curve of Panc1 unedited cells by gemcitabine under our standard reaction conditions to serve as a baseline. […] Again, after 72 hours, each cell population was exposed to gemcitabine for an additional 72 hours and thereafter cell viability of the treated and untreated cells was measured using the Cell Titer 2.0 viability assay (Promega, Madison, WI, USA). […]

A549 cells = test: Cell viability (MTS) of gRNA-targeted A549 cells; type: cell-based, Human; conditions: without any cisplatin exposure (0 uM), vs wildtype untransfected cells
Text: as §1, §2

Row | Substance | chemosensitivity to Cisplatin restored (KYSE-410 cells) | sensitivity to cisplatin (KYSE-410 cells) | viability after a single dose of Cisplatin (FaDu cells) | sensitivity to cisplatin (FaDu cells) | editing efficiency (comparison among gRNAs) (NRF2 gene) | cell killing (Panc-1 cells) | viability (A549 cells)
1 | sg76: gRNA targeting exon 4 of NRF2; TCACTTGTTCCTGATATTCC CGG (guide TCACTTGTTCCTGATATTCCCGG; listed as DNA, chemistry not given here) | restored | enhanced sensitivity to cisplatin | significant reduction in viability | enhanced sensitivity to cisplatin | – | – | –
2 | sg83: gRNA targeting exon 4 of NRF2; GTAGCCCCTGTTGATTTAGA CGG (guide GTAGCCCCTGTTGATTTAGACGG; listed as DNA, chemistry not given here) | restored | enhanced sensitivity to cisplatin | significant reduction in viability | enhanced sensitivity to cisplatin | highest editing efficiency | approximately 40% | much lower viability
